Measurements: US12376590B2, “Compositions comprising pyridine carboxylate herbicides and azole carboxylate safeners” (Corteva Agriscience LLC, priority 2018, dated 2025)

What was measured:
Test in all cases: Greenhouse postemergence herbicidal safening trial, visual injury after 20-22 d
wild buckwheat (POLCO) = type: in vivo, Polygonum convolvulus
Excerpt: (§1) Greenhouse Trial Methodology—Evaluation of Postemergence Herbicidal Safening in Crops
(§2) Seeds of the desired test plant species were planted in a 90:10% v/v (volume/volume) mixture of PRO-MIX® BX (Premier Tech Horticulture, Quakertown, PA, USA) and PROFILE® GREENS GRADE™ (Profile Products LLC, Buffalo Grove, IL, USA) planting mixture, which typically has a pH of 5.2 to 6.2 and an organic matter content of at least 50 percent, in plastic pots with a surface area of 103.2 square centimeters (cm^2). When required to ensure good germination and healthy plants, a fungicide treatment and/or other chemical or physical treatment was applied. The plants were grown for 7-36 days (d) in a greenhouse with an approximate 14-hour (h) photo-period which was maintained at about 23° C. during the day and 22° C. during the night. Nutrients and water were added on a regular basis and supplemental lighting was provided with overhead metal halide 1000-Watt lamps as necessary. The plants were employed for testing when they reached the second or third true leaf stage.
(§3) Emulsifiable concentrates of each of each pyridine carboxylate herbicide (Compound A or Compound B) were prepared at 100 grams acid equivalent per liter (g ae/L). An aliquot of each emulsifiable concentrate was placed in a 25 mL glass vial and diluted with an aqueous mixture of 1.25% (v/v) ACTIROB® B esterified rapeseed oil (Bayer Crop Science, Research Triangle Park, NC, USA) or MSO® Concentrate with LECI-TECH® methylated soybean oil (Loveland Products, Loveland, CO, USA) to obtain concentrated stock solutions at the highest application rate for each herbicide, based upon a 12 milliliter (mL) application volume at a rate of 187 liters per hectare (L/ha). The concentrated stock solutions were further diluted with an aqueous mixture of 1.25% v/v ACTIROB® B or MSO® Concentrate with LECI-TECH® to obtain stock solutions at reduced application rates for each herbicide. Spray solutions of the herbicide combinations (Compound A or Compound B plus safener) were prepared by adding weighed amounts or aliquots of the azole carboxylate safener to the stock solutions of Compound A or Compound B to form 12-mL spray solutions in two-way combinations.
(§4) The spray solutions were applied to the plant material with an overhead Mandel track sprayer equipped with 8002E nozzles calibrated to deliver 187 L/ha over an application area of 0.503 square meters (m^2) at a spray height of 18 inches (43 centimeters (cm)) above the average plant canopy. Control plants were sprayed in the same manner with the solvent blank. All herbicide (component a) application rates are given as “g ae/ha” and all safener (component b) application rates are given as “g ai/ha.”
(§5) The treated plants and control plants were placed in a greenhouse as described above and watered by sub-irrigation to prevent wash-off of the test compounds. After 20-22 d, the condition of the test plants as compared with that of the control plants was determined visually and scored on a scale of 0 to 100 percent where 0 corresponds to no injury and 100 corresponds to complete kill.

[1] = system: ivyleaf morningglory (IPOHE); type: in vivo, Ipomoea hederacea
Excerpt: as §1, §2, §3, §4, §5

common rice (ORYSA) = type: in vivo, Oryza sativa
Excerpt: as §1, §2, §3, §4, §5

pigweed (AMARE) = type: in vivo, Amaranthus retroflexus
Excerpt: as §1, §2, §3, §4, §5

wild pansy (VIOTR) = type: in vivo, Viola tricolor
Excerpt: as §1, §2, §3, §4, §5

wild oat (AVEFA) = type: in vivo, Avena fatua
Excerpt: as §1, §2, §3, §4, §5

barnyardgrass (ECHCG) = type: in vivo, Echinochloa crus-galli
Excerpt: as §1, §2, §3, §4, §5

Johnson grass (SORHA) = type: in vivo, Sorghum halepense
Excerpt: as §1, §2, §3, §4, §5

blackgrass (ALOMY) = type: in vivo, Alopecurus myosuroides
Excerpt: as §1, §2, §3, §4, §5

Canada thistle (CIRAR) = type: in vivo, Cirsium arvense
Excerpt: as §1, §2, §3, §4, §5

[2] = system: common lambsquarters (CHEAL); type: in vivo, Chenopodium album L.
Excerpt: as §1, §2, §3, §4, §5

nutsedge (CYPES) = type: in vivo, Cyperus esculentus
Excerpt: as §1, §2, §3, §4, §5

[3] = system: Chinese sprangletop (LEFCH); type: in vivo, Leptochloa chinensis
Excerpt: as §1, §2, §3, §4, §5

Measured: % visual injury Ob

CCOC(=O)C1=NN(c2ccc(Cl)cc2Cl)C(C)(C(=O)OCC)C1 (centres unmarked) [Mefenpyr-diethyl, mefenpyr-diethyl]
0%: wild buckwheat (POLCO); Mefenpyr-diethyl 20 g/ha | wild buckwheat (POLCO); Mefenpyr-diethyl 40 g/ha | wild buckwheat (POLCO); Mefenpyr-diethyl 80 g/ha | [1]; Mefenpyr-diethyl 20 g/ha | [1]; Mefenpyr-diethyl 40 g/ha | [1]; Mefenpyr-diethyl 80 g/ha | common rice (ORYSA); Mefenpyr-diethyl 20 g/ha | common rice (ORYSA); Mefenpyr-diethyl 40 g/ha | common rice (ORYSA); Mefenpyr-diethyl 80 g/ha | pigweed (AMARE); Mefenpyr-diethyl 20 g/ha | pigweed (AMARE); Mefenpyr-diethyl 40 g/ha | pigweed (AMARE); Mefenpyr-diethyl 80 g/ha | pigweed (AMARE); applied alone, 20 g/ha | pigweed (AMARE); applied alone, 40 g/ha | pigweed (AMARE); applied alone, 80 g/ha | pigweed (AMARE); applied alone, 120 g/ha | wild pansy (VIOTR); Mefenpyr-diethyl 20 g/ha | wild pansy (VIOTR); Mefenpyr-diethyl 40 g/ha | wild pansy (VIOTR); Mefenpyr-diethyl 80 g/ha | wild oat (AVEFA); Mefenpyr-diethyl 20 g/ha | wild oat (AVEFA); Mefenpyr-diethyl 40 g/ha | wild oat (AVEFA); Mefenpyr-diethyl 80 g/ha | barnyardgrass (ECHCG); Mefenpyr-diethyl 20 g/ha | barnyardgrass (ECHCG); Mefenpyr-diethyl 40 g/ha | barnyardgrass (ECHCG); Mefenpyr-diethyl 80 g/ha | Johnson grass (SORHA); Mefenpyr-diethyl 20 g/ha | Johnson grass (SORHA); Mefenpyr-diethyl 40 g/ha | Johnson grass (SORHA); Mefenpyr-diethyl 80 g/ha | blackgrass (ALOMY); Mefenpyr-diethyl 20 g/ha | blackgrass (ALOMY); Mefenpyr-diethyl 40 g/ha | blackgrass (ALOMY); Mefenpyr-diethyl 80 g/ha | Canada thistle (CIRAR); Mefenpyr-diethyl 20 g/ha | Canada thistle (CIRAR); Mefenpyr-diethyl 40 g/ha | Canada thistle (CIRAR); Mefenpyr-diethyl 80 g/ha | [2]; Mefenpyr-diethyl 20 g/ha | [2]; Mefenpyr-diethyl 40 g/ha | [2]; Mefenpyr-diethyl 80 g/ha | nutsedge (CYPES); Mefenpyr-diethyl 20 g/ha | nutsedge (CYPES); Mefenpyr-diethyl 40 g/ha | nutsedge (CYPES); Mefenpyr-diethyl 80 g/ha | nutsedge (CYPES); applied alone, 20 g/ha | nutsedge (CYPES); applied alone, 40 g/ha | nutsedge (CYPES); applied alone, 80 g/ha | nutsedge (CYPES); applied alone, 120 g/ha | [3]; Mefenpyr-diethyl 20 g/ha | [3]; Mefenpyr-diethyl 40 g/ha | [3]; Mefenpyr-diethyl 80 g/ha
